The text below walks through data of patent publication US10538555B2, “Macrocyclic inhibitors of the PD-1/PD-L1 and CD80(B7-1)/PD-L1 protein/protein interactions” (BRISTOL-MYERS SQUIBB COMPANY, priority 2014, dated 2020).

Where a SMILES comes first, the peptide text is derived from it. Bridges are numbered along the chain shown (N, C = ends). [ ]: non-standard residue; d: D form. Trp(1-CH2COOH) = N[C@@H](Cc1cn(CC(=O)O)c2ccccc12)C(=O)O; Phe(3,4,5-F3) = N[C@@H](Cc1cc(F)c(F)c(F)c1)C(=O)O; Phe(3,4-F2) = N[C@@H](Cc1ccc(F)c(F)c1)C(=O)O; NMePhe(4-F) = CN[C@@H](Cc1ccc(F)cc1)C(=O)O; d(cisHyp) = O=C(O)[C@H]1C[C@@H](O)CN1; Hyp = O=C(O)[C@@H]1C[C@@H](O)CN1; NMeF = CN[C@@H](Cc1ccccc1)C(=O)O; NMehSer = CN[C@@H](CCO)C(=O)O; NMeNle = CCCC[C@H](NC)C(=O)O; Pip = O=C(O)[C@@H]1CCCCN1; dPip = O=C(O)[C@H]1CCCCN1; NMeA = CN[C@@H](C)C(=O)O; Orn = NCCC[C@H](N)C(=O)O; dThz = O=C(O)[C@H]1CSCN1; Dab = NCC[C@H](N)C(=O)O; dAze = O=C(O)[C@H]1CCN1; Dap = NC[C@H](N)C(=O)O

The target of this assay is T1, Human PD-L1/PD-1 (Homo sapiens, UniProt Q9NZQ7).
T1 construct: TVMV protease cleavage site (C); made in house; host or cells: HEK293T cells
The assay is described as follows: HTRF Human PD-L1/PD-1 binding assay (PD-1-Ig/PD-L1-His). The following applies: PD-L1-His 10 nM, PD-1-Ig 20 nM; class symbol; read-out: HTRF Human PD-L1/PD-1 Binding Assay IC50 Range. The method in brief: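 Inhibitors were preincubated 15 min with human PD-L1(18-239)-His (10 nM final), then PD-1(25-167)-Ig (20 nM final) was added for 15 min in dPBS/0.1% BSA/0.05% Tween-20. Eu-cryptate anti-Ig (1 nM) and APC anti-His (20 nM) were added; 665/620 nm ratio read after 30 min.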
A general note: In TR-FRET formats the signal depends on donor and acceptor labels being close together.

T1 sequence (Q9NZQ7 with tags, fused parts or gaps): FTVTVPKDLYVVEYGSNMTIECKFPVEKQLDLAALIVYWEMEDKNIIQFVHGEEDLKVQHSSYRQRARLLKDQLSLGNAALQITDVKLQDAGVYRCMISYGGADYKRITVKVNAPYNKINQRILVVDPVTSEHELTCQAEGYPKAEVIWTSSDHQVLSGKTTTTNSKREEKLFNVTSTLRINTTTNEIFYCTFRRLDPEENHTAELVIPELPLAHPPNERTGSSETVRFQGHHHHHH

Regarding `CCCC[C@H]1C(=O)N2C[C@H](O)C[C@@H]2C(=O)N[C@@H](CC(=O)O)C(=O)N[C@@H](C(C)C)C(=O)N(C)[C@@H](Cc2ccccc2)C(=O)N[C@@H](CCC(=O)O)C(=O)N2CC[C@@H]2C(=O)N[C@@H](Cc2c[nH]c3ccccc23)C(=O)N[C@@H](Cc2ccc(O)cc2)C(=O)N[C@@H](CCCN)C(=O)N[C@H](C(=O)NCC(N)=O)CSCC(=O)N[C@@H](Cc2cc(F)c(F)c(F)c2)C(=O)N(C)[C@@H](Cc2ccccc2)C(=O)N1C` [Example 3644] ({CH2CO}-[Phe(3,4,5-F3)][NMeF][NMeNle][d(cisHyp)]DV[NMeF]E[dAze]WY[Orn]CG-NH2; thioether N-13), the IC50 lay within 1 to 9.9 nM.
Regarding `CCCC[C@H]1C(=O)N(C)[C@@H](CCCC)C(=O)N[C@@H](CC(C)C)C(=O)N[C@H](C(=O)NCC(N)=O)CSCC(=O)N[C@@H](Cc2ccc(O)cc2)C(=O)N(C)[C@@H](C)C(=O)N[C@@H](CC(N)=O)C(=O)N2CCC[C@H]2C(=O)N[C@@H](CO)C(=O)N[C@@H](CCC(N)=O)C(=O)N2C[C@H](O)C[C@H]2C(=O)N[C@@H](Cc2c[nH]c3ccccc23)C(=O)N[C@@H](CO)C(=O)N[C@@H](Cc2cn(CC(=O)O)c3ccccc23)C(=O)N1C` [Example 6216] ({CH2CO}-Y[NMeA]NPSQ[Hyp]WS[Trp(1-CH2COOH)][NMeNle][NMeNle]LCG-NH2; thioether N-14), the IC50 lay within 1 to 9.9 nM.
Regarding `CCCC[C@H]1C(=O)N(C)[C@@H](CCCC)C(=O)N[C@@H](CCC(=O)O)C(=O)N[C@H](C(=O)NCC(N)=O)CSCC(=O)N[C@@H](Cc2ccc(O)cc2)C(=O)N2CCCC[C@H]2C(=O)N[C@@H](CC(N)=O)C(=O)N2CCC[C@H]2C(=O)N[C@@H](Cc2cnc[nH]2)C(=O)N[C@@H](CCCCN)C(=O)N2C[C@H](O)C[C@H]2C(=O)N[C@@H](Cc2c[nH]c3ccccc23)C(=O)N[C@@H](CCCCN)C(=O)N[C@@H](Cc2cn(CC(=O)O)c3ccccc23)C(=O)N1C` [Example 1303] ({CH2CO}-Y[Pip]NPHK[Hyp]WK[Trp(1-CH2COOH)][NMeNle][NMeNle]ECG-NH2; thioether N-14), the IC50 is 10 to 99.9 nM.
Next, `CCCC[C@H]1C(=O)N(C)[C@@H](CCCC)C(=O)N[C@@H](CCCN)C(=O)N[C@H](C(=O)NCC(N)=O)CSCC(=O)N[C@@H](Cc2ccc(OC)cc2)C(=O)N(C)[C@@H](C)C(=O)N[C@@H](CC(N)=O)C(=O)N2CCC[C@H]2C(=O)N[C@@H](CN)C(=O)N[C@@H](CCCCN)C(=O)N2C[C@H](O)C[C@H]2C(=O)N[C@@H](Cc2c[nH]c3ccccc23)C(=O)N[C@@H](CC(=O)O)C(=O)N[C@@H](Cc2c[nH]c3ccccc23)C(=O)N1C` [Example 7108] ({CH2CO}-Y(Me)[NMeA]NP[Dap]K[Hyp]WDW[NMeNle][NMeNle][Orn]CG-NH2; thioether N-14): 1 to 9.9 nM.
The value for `CCCC[C@H]1C(=O)N2CCC[C@@H]2C(=O)N[C@@H](CO)C(=O)N[C@@H](C(C)C)C(=O)N(C)[C@@H](Cc2ccccc2)C(=O)N[C@@H](Cc2ccc(O)cc2)C(=O)N2CSC[C@@H]2C(=O)N[C@@H](Cc2c[nH]c3ccccc23)C(=O)N[C@@H](Cc2ccc(O)cc2)C(=O)N[C@@H](CC(C)C)C(=O)N[C@H](C(=O)NCC(N)=O)CSCC(=O)N[C@@H](Cc2ccccc2)C(=O)N(C)[C@@H](Cc2ccccc2)C(=O)N1C` [Example 10070] ({CH2CO}-F[NMeF][NMeNle][dP]SV[NMeF]Y[dThz]WYLCG-NH2; thioether N-13) was 10 to 99.9 nM; that for `CCCC[C@H]1C(=O)N2C[C@H](O)C[C@@H]2C(=O)N[C@@H](CC(=O)O)C(=O)N[C@@H](C(C)C)C(=O)N(C)[C@@H](Cc2ccccc2)C(=O)N[C@@H](CC(N)=O)C(=O)N2C[C@H](O)C[C@@H]2C(=O)N[C@@H](Cc2c[nH]c3ccccc23)C(=O)N[C@@H](Cc2ccc(O)cc2)C(=O)N[C@@H](CCC(=O)O)C(=O)N[C@H](C(=O)NCC(N)=O)CSCC(=O)N[C@@H](Cc2cc(F)c(F)c(F)c2)C(=O)N(C)[C@@H](Cc2ccccc2)C(=O)N1C` [Example 9366] ({CH2CO}-[Phe(3,4,5-F3)][NMeF][NMeNle][d(cisHyp)]DV[NMeF]N[d(cisHyp)]WYECG-NH2; thioether N-13) was 10 to 99.9 nM; that for `CCCC[C@H]1C(=O)N(C)[C@@H](CCCC)C(=O)N[C@@H](CCC(=O)O)C(=O)N[C@H](C(=O)NCC(N)=O)CSCC(=O)N[C@@H](Cc2ccc(O)cc2)C(=O)N(C)[C@@H](C)C(=O)N[C@@H](CC(=O)O)C(=O)N2CCC[C@H]2C(=O)N[C@@H](CO)C(=O)N[C@@H](CC(C)C)C(=O)N2C[C@H](O)C[C@H]2C(=O)N[C@@H](Cc2c[nH]c3ccccc23)C(=O)N[C@@H](CCN)C(=O)N[C@@H](Cc2c[nH]c3ccccc23)C(=O)N1C` [Example 5179] ({CH2CO}-Y[NMeA]DPSL[Hyp]W[Dab]W[NMeNle][NMeNle]ECG-NH2; thioether N-14) was 1 to 9.9 nM.
For the compound `CCCC[C@H]1C(=O)N2C[C@H](O)C[C@@H]2C(=O)N[C@@H](CC(=O)O)C(=O)N[C@@H](C(C)C)C(=O)N(C)[C@@H](Cc2ccccc2)C(=O)N[C@@H](CCCN)C(=O)N2C[C@H](O)C[C@@H]2C(=O)N[C@@H](Cc2c[nH]c3ccccc23)C(=O)N[C@@H](Cc2ccc(O)cc2)C(=O)N[C@@H](CCCN)C(=O)N[C@H](C(=O)NCC(N)=O)CSCC(=O)N[C@@H](Cc2ccc(F)c(F)c2)C(=O)N(C)[C@@H](Cc2ccccc2)C(=O)N1C` [Example 9308] ({CH2CO}-[Phe(3,4-F2)][NMeF][NMeNle][d(cisHyp)]DV[NMeF][Orn][d(cisHyp)]WY[Orn]CG-NH2; thioether N-13), the IC50 lay in the range of 1 to 9.9 nM.
The value for `CCCC[C@H]1C(=O)N(C)[C@@H](CCCC)C(=O)N[C@@H](CC(C)C)C(=O)N[C@H](C(=O)NCC(N)=O)CSCC(=O)N[C@@H](Cc2ccc(O)cc2)C(=O)N2CCCC[C@H]2C(=O)N[C@@H](CC(N)=O)C(=O)N2CCC[C@H]2C(=O)N[C@@H](CO)C(=O)N[C@@H](CCC(N)=O)C(=O)N2C[C@H](O)C[C@H]2C(=O)N[C@@H](Cc2c[nH]c3ccccc23)C(=O)N[C@@H](CO)C(=O)N[C@@H](Cc2cn(CC(=O)O)c3ccccc23)C(=O)N1C` [Example 1304] ({CH2CO}-Y[Pip]NPSQ[Hyp]WS[Trp(1-CH2COOH)][NMeNle][NMeNle]LCG-NH2; thioether N-14) was 10 to 99.9 nM; that for `CCCC[C@H]1C(=O)N2CCC[C@@H]2C(=O)N[C@@H](CC(=O)O)C(=O)N[C@@H](C(C)C)C(=O)N(C)[C@@H](Cc2ccccc2)C(=O)N[C@@H](CC(=O)O)C(=O)N2CCCC[C@@H]2C(=O)N[C@@H](Cc2c[nH]c3ccccc23)C(=O)N[C@@H](Cc2ccc(O)cc2)C(=O)N[C@@H](CO)C(=O)N[C@H](C(=O)NCC(N)=O)CSCC(=O)N[C@@H](Cc2cc(F)c(F)c(F)c2)C(=O)N(C)[C@@H](Cc2ccc(F)cc2)C(=O)N1C` [Example 10573] ({CH2CO}-[Phe(3,4,5-F3)][NMePhe(4-F)][NMeNle][dP]DV[NMeF]D[dPip]WYSCG-NH2; thioether N-13) was 1 to 9.9 nM; that for `CCCC[C@H]1C(=O)N[C@@H](CCC(=O)O)C(=O)N[C@H](C(=O)NCC(N)=O)CSCC(=O)N[C@@H](Cc2ccc(O)cc2)C(=O)N(C)[C@@H](C)C(=O)N[C@@H](CC(N)=O)C(=O)N2CCC[C@H]2C(=O)N[C@@H](Cc2c[nH]cn2)C(=O)N[C@@H](CCC(N)=O)C(=O)N2C[C@H](O)C[C@H]2C(=O)N[C@@H](Cc2c[nH]c3ccccc23)C(=O)N[C@@H](CO)C(=O)N[C@@H](Cc2c[nH]c3ccccc23)C(=O)N(C)[C@@H](CCOC)C(=O)N1C` [Example 10141] ({CH2CO}-Y[NMeA]NPHQ[Hyp]WSW[NMehSer](Me)[NMeNle]ECG-NH2; thioether N-14) was 10 to 99.9 nM.
